According to PubChem BioAssay AID1963986 (Molecular Pharmacology Branch, DTP, NCI, 2024):

System: 171881-019-R-J1-PDC tumor spheroid viability
Assay: Anticancer human tumor 171881-019-R-J1-PDC patient-derived invasive breast carcinoma cell line growth inhibition [PI3K]
Settings: spheroids with HUVEC and MSC; for IC50: curve of first compound; for viability, T/C: stronger effect = lower value
Summary of the method: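 Tumor cells were combined with HUVEC and MSCs into spheroids, then dosed with PI3K-inhibitor combinations over half-log ranges capped near clinical Cmax or 10 microM.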
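Note: spheroids exposed to compound for 7 days before viability read.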
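Throughout, for viability, T/C: 100% = DMSO vehicle-treated spheroids.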

Molecule Cn1cnc2c(F)c(Nc3ccc(Br)cc3Cl)c(C(=O)NOCCO)cc21 + COc1c(OCCCN2CCOCC2)ccc2c3n(c(=NC(=O)c4cnc(N)nc4)nc12)CCN3 has an IC50 (second compound 0.00316 µM) of 59 nM, an IC50 (second compound 0.01 µM) of less than 9.49 nM and an IC50 (second compound 0.0316 µM) of less than 9.49 nM. The IC50 (second compound 0.1 µM) was less than 9.49 nM, the IC50 (second compound 0.316 µM) was less than 9.49 nM and the IC50 (second compound 1 µM) was less than 9.49 nM. The viability, T/C (second compound 0.00316 µM, first compound 0.00949 µM) was 55.7%, the viability, T/C (second compound 0.00316 µM, first compound 0.03 µM) was 59.1% and the viability, T/C (second compound 0.00316 µM, first compound 0.0949 µM) was 43.1%. For the same molecule, the viability, T/C (second compound 0.00316 µM, first compound 0.3 µM) was 37.1%, the viability, T/C (second compound 0.00316 µM, first compound 0.949 µM) was 21.8% and the viability, T/C (second compound 0.00316 µM, first compound 3 µM) was 9.21%. It also gave a viability, T/C (second compound 0.01 µM, first compound 0.00949 µM) of 39.5%, a viability, T/C (second compound 0.01 µM, first compound 0.03 µM) of 39.4% and a viability, T/C (second compound 0.01 µM, first compound 0.0949 µM) of 31.9%. The viability, T/C (second compound 0.01 µM, first compound 0.3 µM) was 24.2%, the viability, T/C (second compound 0.01 µM, first compound 0.949 µM) was 14% and the viability, T/C (second compound 0.01 µM, first compound 3 µM) was 4.9%. It also gave a viability, T/C (second compound 0.0316 µM, first compound 0.00949 µM) of 20.8%, a viability, T/C (second compound 0.0316 µM, first compound 0.03 µM) of 18.8% and a viability, T/C (second compound 0.0316 µM, first compound 0.0949 µM) of 16.9%. It also gave a viability, T/C (second compound 0.0316 µM, first compound 0.3 µM) of 10.5%, a viability, T/C (second compound 0.0316 µM, first compound 0.949 µM) of 6.05% and a viability, T/C (second compound 0.0316 µM, first compound 3 µM) of 1.88%. It also gave a viability, T/C (second compound 0.1 µM, first compound 0.00949 µM) of 6.77%, a viability, T/C (second compound 0.1 µM, first compound 0.03 µM) of 5.8% and a viability, T/C (second compound 0.1 µM, first compound 0.0949 µM) of 4.51%. For the same molecule, the viability, T/C (second compound 0.1 µM, first compound 0.3 µM) was 2.81%, the viability, T/C (second compound 0.1 µM, first compound 0.949 µM) was 1.28% and the viability, T/C (second compound 0.1 µM, first compound 3 µM) was 0.8%. The viability, T/C (second compound 0.316 µM, first compound 0.00949 µM) was 1.87%, the viability, T/C (second compound 0.316 µM, first compound 0.03 µM) was 2.04% and the viability, T/C (second compound 0.316 µM, first compound 0.0949 µM) was 1.3%. For the same molecule, the viability, T/C (second compound 0.316 µM, first compound 0.3 µM) was 0.68%, the viability, T/C (second compound 0.316 µM, first compound 0.949 µM) was 0.42% and the viability, T/C (second compound 0.316 µM, first compound 3 µM) was 0.28%. It also gave a viability, T/C (second compound 1 µM, first compound 0.00949 µM) of 0.82%, a viability, T/C (second compound 1 µM, first compound 0.03 µM) of 1.37% and a viability, T/C (second compound 1 µM, first compound 0.0949 µM) of 0.93%. It also gave a viability, T/C (second compound 1 µM, first compound 0.3 µM) of 1.07%, a viability, T/C (second compound 1 µM, first compound 0.949 µM) of 0.79% and a viability, T/C (second compound 1 µM, first compound 3 µM) of 0.56%.
